Source: patent publication US9434734B2, “Substituted pyrazoloquinazolinones and pyrroloquinazolinones as allosteric modulators of group II metabotropic glutamate receptors” (Domain Therapeutics, priority 2012, dated 2016)

Experiments:
[1] = molecular target: T1, human mGluR2 (hmGluR2) transiently over-expressed in HEK-293 cells (Homo sapiens, UniProt Q14416); assay: Human mGluR2 negative allosteric modulator evaluation using Ca++ functional assay (agonist and NAM activity); format: cell-based; settings: hmGluR2 in HEK-293 cells, EC80 glutamate, Fluo4AM calcium readout; read-out: mGluR2 negative allosteric modulator activity IC50
T1 construct: expressed in transfected cells; host or cells: HEK-293 cells, transient co-transfection by electroporation
T1 sequence (Q14416 19-872): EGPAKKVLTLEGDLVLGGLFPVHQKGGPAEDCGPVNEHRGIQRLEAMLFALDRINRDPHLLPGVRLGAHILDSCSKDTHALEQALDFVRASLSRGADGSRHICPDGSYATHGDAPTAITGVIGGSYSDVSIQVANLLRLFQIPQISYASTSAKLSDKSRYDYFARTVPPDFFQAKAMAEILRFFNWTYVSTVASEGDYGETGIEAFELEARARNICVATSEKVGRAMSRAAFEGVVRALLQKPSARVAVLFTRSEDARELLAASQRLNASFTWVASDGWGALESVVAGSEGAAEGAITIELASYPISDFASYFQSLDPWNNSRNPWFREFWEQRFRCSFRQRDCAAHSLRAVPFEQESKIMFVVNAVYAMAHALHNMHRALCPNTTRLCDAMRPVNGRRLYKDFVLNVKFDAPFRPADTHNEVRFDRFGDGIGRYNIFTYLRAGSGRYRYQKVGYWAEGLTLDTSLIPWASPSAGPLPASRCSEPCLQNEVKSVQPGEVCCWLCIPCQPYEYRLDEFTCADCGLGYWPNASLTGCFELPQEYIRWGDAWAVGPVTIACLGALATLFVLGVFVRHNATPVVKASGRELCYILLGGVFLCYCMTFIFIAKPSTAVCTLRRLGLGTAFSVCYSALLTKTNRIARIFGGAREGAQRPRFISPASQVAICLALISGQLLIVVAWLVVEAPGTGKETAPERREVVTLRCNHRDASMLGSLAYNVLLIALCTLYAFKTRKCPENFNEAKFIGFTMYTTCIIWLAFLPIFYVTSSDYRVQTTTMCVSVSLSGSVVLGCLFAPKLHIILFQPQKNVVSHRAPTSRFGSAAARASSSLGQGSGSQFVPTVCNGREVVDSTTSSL
Procedure: Human mGluR2 Negative Allosteric Modulator Evaluation Using Ca^++ Functional Assay
Compounds of the present invention were tested successively for their agonist and negative allosteric modulator activities on human mGluR2 (hmGluR2) transiently over-expressed in HEK-293 cells. They exert agonist activity if they are able to activate mGluR2 by themselves, i.e., in absence of the endogenous agonist glutamate; and they exert negative allosteric modulator activity if they decrease the action of the endogenous agonist glutamate.
HEK-293 cells were maintained in Modified Eagle's Medium supplemented with 10% Foetal Calf Serum, 1% Penicillin/Streptomycin and 1% nonessential amino acids at 37° C./5% CO2.
Cells were plated after transfection onto polyornithine coated, clear bottom, black-walled, 96-well plates and cultured for 24 h.
Receptor activity was detected by changes in intracellular calcium measured using the fluorescent Ca^2+ sensitive dye, Fluo4AM (Molecular Probes).
The day of the assay, medium was aspirated and replaced during 3 hours by medium without serum supplemented with 1% Glutamax, 1% Penicillin/Streptomycin and 1% nonessential amino acids. Then, cells were washed with freshly prepared buffer B (HBSS 1× (PAA), Hepes 20 mM, MgSO4-7H2O 1 mM, Na2CO3 3.3 mM, CaCl2-2H2O 1.3 mM, 0.5% BSA, Probenecid 2.5 mM) and loaded at 37° C./5% CO2 for 1.5 hours with buffer B containing 1 μM Fluo4AM, 0.1 mg/mL Pluronic Acid, 7 μg/mL Glutamate Pyruvate Transaminase and 2 mM sodium pyruvate. Afterwards cells were washed twice with buffer B and 50 μL of this buffer were added to each well.
Agonist and negative allosteric modulator activities of compounds were consecutively evaluated on the same cells plate. […] Then, the cells were stimulated by an EC80 glutamate concentration and fluorescence was recorded for additional 60 s. EC80 glutamate concentration is the concentration giving 80% of the maximal glutamate response. Agonist and/or negative allosteric modulator activity(ies) were evaluated in comparison to basal signal or signal evoked by EC80 glutamate alone, respectively.
For potency determination, a dose-response test was performed using 8 concentrations of each compound of the invention. Dose-response curves were fitted using the sigmoidal dose-response (variable slope) analysis in GraphPad Prism program (Graph Pad Inc) and EC50 of agonist/IC50 of negative allosteric modulator activity was calculated. Dose-response experiments were all performed in duplicate, two times independently.

Row | Compound | IC50 [1] [nM] | melting point [°C]
1 | Cl.Cn1c(=O)c2ccc(-c3cnc(N)cn3)cc2n2nc(-c3ccccc3)cc12 [Example 30, 8-(5-Amino-pyrazin-2-yl)-4-methyl-2-phenyl-4H-pyrazolo[1,5-a]quinazolin-5-one] | < 1000 | 192 to 193
2 | CCn1c(=O)c2ccc(-c3ccc(N)nc3)cc2n2nc(-c3ccccc3)cc12.Cl [Example 43, 8-(6-Amino-pyridin-3-yl)-4-ethyl-2-phenyl-4H-pyrazolo[1,5-a]quinazolin-5-one] | < 1000 | 207 to 208
3 | Cn1cc(-c2ccc3c(=O)n(C)c4cc(-c5ccccc5)nn4c3c2)cn1 [Example 16, 4-Methyl-8-(1-methyl-1H-pyrazol-4-yl)-2-phenyl-4H-pyrazolo[1,5-a]quinazolin-5-one] | < 1000 | > 250
4 | CC(=O)c1cccc(-c2ccc3c(=O)n(C)c4cc(-c5ccccc5)nn4c3c2)c1 [Example 14, 8-(3-Acetyl-phenyl)-4-methyl-2-phenyl-4H-pyrazolo[1,5-a]quinazolin-5-one] | < 1000 | 207 to 209
5 | Cc1ncncc1-c1ccc2c(=O)n(C)c3cc(-c4ccnc(C(F)(F)F)c4)nn3c2c1.Cl [Example 144, 4-Methyl-8-(4-methyl-pyrimidin-5-yl)-2-(2-trifluoromethyl-pyridin-4-yl)-4H-pyrazolo[1,5-a]quinazolin-5-one] | < 1000 | > 250
6 | Cc1cc(-c2ccc3c(=O)n(C)c4cc(C5CCCCO5)nn4c3c2)cc(C)n1.Cl (stereo not drawn) [Example 109, 8-(2,6-Dimethyl-pyridin-4-yl)-4-methyl-2-(tetrahydro-pyran-2-yl)-4H-pyrazolo[1,5-a]quinazolin-5-one] | < 1000 | 186 to 194
7 | Cc1n[nH]c(C)c1-c1ccc2c(=O)n(C)c3cc(-c4ccnc(C(F)(F)F)c4)nn3c2c1 [Example 145, 8-(3,5-Dimethyl-1H-pyrazol-4-yl)-4-methyl-2-(2-trifluoromethyl-pyridin-4-yl)-4H-pyrazolo[1,5-a]quinazolin-5-one] | < 1000 | > 250
8 | Cc1cc(-c2ccc3c(=O)n(C)c4cc(C5CCCCCC5)nn4c3c2)cc(C)n1.Cl [Example 77, 2-Cycloheptyl-8-(2,6-dimethyl-pyridin-4-yl)-4-methyl-4H-pyrazolo[1,5-a]quinazolin-5-one] | < 1000 | > 250
9 | Cn1c(=O)c2ccc(-c3cn[nH]c3)cc2n2nc(-c3ccccc3)cc12 [Example 6, 4-Methyl-2-phenyl-8-(1H-pyrazol-4-yl)-4H-pyrazolo[1,5-a]quinazolin-5-one] | < 1000 | > 250
10 | Cn1c(=O)c2ccc(-c3c[nH]nc3C(F)(F)F)cc2n2nc(-c3ccccc3)cc12 [Example 19, 4-Methyl-2-phenyl-8-(3-trifluoromethyl-1H-pyrazol-4-yl)-4H-pyrazolo[1,5-a]quinazolin-5-one] | < 1000 | > 250
11 | Cn1c(=O)c2ccc(-c3ccc(N)cc3)cc2n2nc(-c3ccccc3)cc12 [Example 3, 8-(4-Amino-phenyl)-4-methyl-2-phenyl-4H-pyrazolo[1,5-a]quinazolin-5-one] | < 1000 | 173 to 175
12 | Cn1c(=O)c2ccc(-c3ccnc(C(F)(F)F)c3)cc2n2nc(-c3ccnc(C(F)(F)F)c3)cc12 [Example 139, 4-Methyl-2,8-bis-(2-trifluoromethyl-pyridin-4-yl)-4H-pyrazolo[1,5-a]quinazolin-5-one] | < 1000 | > 250
13 | Cc1nc(N)cnc1-c1ccc2c(=O)n(C)c3cc(-c4ccccc4)nn3c2c1.Cl [Example 32, 8-(5-Amino-3-methyl-pyrazin-2-yl)-4-methyl-2-phenyl-4H-pyrazolo[1,5-a]quinazolin-5-one] | < 1000 | 188 to 189
14 | Cn1c(=O)c2ccc(-c3cccc(C#N)c3)cc2n2nc(C3CCOCC3)cc12 [Example 88, 3-[4-Methyl-5-oxo-2-(tetrahydro-pyran-4-yl)-4,5-dihydro-pyrazolo[1,5-a]quinazolin-8-yl]-benzonitrile] | < 1000 | 210 to 216
15 | Cl.Cn1cc(-c2cc3n(C)c(=O)c4ccc(-c5ccncc5)cc4n3n2)cn1 [Example 129, 4-Methyl-2-(1-methyl-1H-pyrazol-4-yl)-8-pyridin-4-yl-4H-pyrazolo[1,5-a]quinazolin-5-one] | < 1000 | > 250
16 | Cc1cc(-c2ccc3c(=O)n(C)c4cc(C5CCOCC5)nn4c3c2)cc(C)n1.Cl [Example 97, 8-(2,6-Dimethyl-pyridin-4-yl)-4-methyl-2-(tetrahydro-pyran-4-yl)-4H-pyrazolo[1,5-a]quinazolin-5-one] | < 1000 | > 250
17 | CCc1cc2n(C)c(=O)c3ccc(-c4ccc(N)nc4)cc3n2n1.Cl [Example 49, 8-(6-Amino-pyridin-3-yl)-2-ethyl-4-methyl-4H-pyrazolo[1,5-a]quinazolin-5-one] | < 1000 | > 250
18 | Cn1c(=O)c2ccc(-c3ccc(S(N)(=O)=O)cc3)cc2n2nc(-c3ccccc3)cc12 [Example 10, 4-(4-Methyl-5-oxo-2-phenyl-4,5-dihydro-pyrazolo[1,5-a]quinazolin-8-yl)-benzenesulfonamide] | < 1000 | > 250
19 | CCc1ncccc1-c1ccc2c(=O)n(C)c3cc(-c4ccnc(C(F)(F)F)c4)nn3c2c1.Cl [Example 137, 8-(2-Ethyl-pyridin-3-yl)-4-methyl-2-(2-trifluoromethyl-pyridin-4-yl)-4H-pyrazolo[1,5-a]quinazolin-5-one] | < 1000 | > 250
20 | Cc1cc(-c2ccc3c(=O)n(C)c4cc(-c5ccccc5)cn4c3c2)cc(C)n1.Cl [Example 111, 8-(2,6-Dimethyl-pyridin-4-yl)-4-methyl-2-phenyl-4H-pyrrolo[1,2-a]quinazolin-5-one] | < 1000 | > 250
21 | Cl.Nc1ccc(-c2ccc3c(=O)n(CC(F)(F)F)c4cc(-c5ccccc5)nn4c3c2)cn1 [Example 45, 8-(6-Amino-pyridin-3-yl)-2-phenyl-4-(2,2,2-trifluoro-ethyl)-4H-pyrazolo[1,5-a]quinazolin-5-one] | < 1000 | 227 to 230
22 | Cn1c(=O)c2ccc(-c3ccc(F)nc3)cc2n2nc(-c3ccnc(C(F)(F)F)c3)cc12 [Example 141, 8-(6-Fluoro-pyridin-3-yl)-4-methyl-2-(2-trifluoromethyl-pyridin-4-yl)-4H-pyrazolo[1,5-a]quinazolin-5-one] | < 1000 | > 250
23 | Cn1c(=O)c2ccc(-c3ccnc(F)c3)cc2n2nc(-c3ccnc(C(F)(F)F)c3)cc12 [Example 140, 8-(2-Fluoro-pyridin-4-yl)-4-methyl-2-(2-trifluoromethyl-pyridin-4-yl)-4H-pyrazolo[1,5-a]quinazolin-5-one] | < 1000 | > 250
24 | Cl.Cn1c(=O)c2ccc(-c3ccc(N)nc3)cc2n2nc(C3CCC3)cc12 [Example 64, 8-(6-Amino-pyridin-3-yl)-2-cyclobutyl-4-methyl-4H-pyrazolo[1,5-a]quinazolin-5-one] | < 1000 | > 250
